Test results published in patent US7432303B2, “Chalcone and its analogs as agents for the inhibition of angiogenesis and related disease states” (James and Emory University, priority 1999, dated 2008).
Like-named read-outs stand apart in the source and are kept apart here.

Tested on: SVR cells
Assay: SVR cell assay: cell numbers counted at 48 hours, percent inhibition versus control
Type: cell-based, murine
Conditions: for inhibition at 1 µg/mL: read-out: Percent Inhibition at a Specified Density (μg/ml): 1; for inhibition at 3 µg/mL: read-out: Percent Inhibition at a Specified Density (μg/ml): 3; for inhibition at 6 µg/mL: read-out: Percent Inhibition at a Specified Density (μg/ml): 6
[1] = 1 μg/ml, 10,000 SVR cells in 24 well dish, counted at 48 hours
[2] = 3 μg/ml, 10,000 SVR cells in 24 well dish, counted at 48 hours
[3] = 6 μg/ml, 10,000 SVR cells in 24 well dish, counted at 48 hours
[4] = Mus musculus, 1 μg/ml, 10,000 SVR cells in 24 well dish, counted at 48 hours
[5] = Mus musculus, 3 μg/ml, 10,000 SVR cells in 24 well dish, counted at 48 hours
[6] = Mus musculus, 6 μg/ml, 10,000 SVR cells in 24 well dish, counted at 48 hours
[7] = 9 μg/ml, 10,000 SVR cells in 24 well dish, counted at 48 hours

Method: In the case of testing the anti-angiogenic/anti-cancer activity of compounds according to the present invention, an assay based on SVR cells may be employed. […] The cell numbers are counted and compared against controls. Percent inhibition is readily determined from the data obtained.
10,000 SVR cells were seeded in a 24 well dish [Arbiser, et al., J. Am. […] The cell numbers were counted at 48 hours.

| Molecule | Percent Inhibition at a Specified Density (μg/ml): 3 [2] [%] | Percent Inhibition at a Specified Density (μg/ml): 6 [3] [%] | inhibition at 1 µg/mL [4] [%] | inhibition at 3 µg/mL [5] [%] | inhibition at 6 µg/mL [6] [%] | further results |
| --- | --- | --- | --- | --- | --- | --- |
| O=C(C=Cc1ccccc1)c1c2ccccc2cc2ccccc12 [Compound 51, 1-(9-Anthryl)-3-phenylpropenone] | 46.4 | 69.0 | – | – | – | Percent Inhibition at a Specified Density (μg/ml): 1 [1]: 25.5% |
| CC(=O)/C=C/c1ccccc1 [Compound 5, 4-Phenyl-3E-buten-2-one] | – | – | – | – | – | inhibition at 1 µg/mL (Mus musculus, SVR, 48 h): 41.9%; inhibition at 3 µg/mL (Mus musculus, SVR, 48 h): 69%; inhibition at 6 µg/mL (Mus musculus, SVR, 48 h): 64% |
| O=C(O)Cc1ccc(C(=O)/C=C/c2ccccc2)cc1 [Compound 17, 4′-Carboxymethylchalcone] | – | – | 13.7 | 3.8 | 29.7 | – |
| COc1ccc(/C=C/C(=O)c2ccc(OC)cc2)cc1 [Compound 2, 4,4′-Dimethoxychalcone] | – | – | 29.1 | 63.4 | 85.2 | – |
| O=C1C(=Cc2c(Cl)cccc2Cl)CCCC1=Cc1c(Cl)cccc1Cl [Compound 76, 2,6-Bis(2,6-dichlorobenzylidene)cyclohexanone] | – | – | 8.4 | 29.8 | 27.1 | – |
| O=C(C=Cc1ccc2ccccc2c1)c1cccc2ccccc12 [Compound 64, 1-(1-Naphthyl)-3-(2-naphthyl)propenone] | 22.4 | 52.0 | – | – | – | Percent Inhibition at a Specified Density (μg/ml): 1 [1]: 0.0% |
| O=C(C=Cc1c2ccccc2cc2ccccc12)c1c2ccccc2cc2ccccc12 [Compound 53, 1,3-Di(9-Anthryl)propenone] | 0.0 | 4.7 | – | – | – | Percent Inhibition at a Specified Density (μg/ml): 1 [1]: 0.0% |
| O=C1C(=Cc2c(Cl)cccc2Cl)CCc2ccccc21 [Compound 69, 2-(2,6-Dichlorobenzylidene)tetralone] | 37.0 | 53.7 | – | – | – | Percent Inhibition at a Specified Density (μg/ml): 1 [1]: 32.8% |
| O=c1cc(-c2ccccc2)oc2ccccc12 [Compound 14, Flavone, reference compound] | – | – | 19.3 | 26.3 | 46.7 | – |
| O=C(C=Cc1c(Cl)cccc1Cl)c1ccc2ccccc2c1 [Compound 59, 3-(2,6-Dichlorophenyl)-1-(2-naphthyl)propenone] | 81.0 | 97.4 | – | – | – | Percent Inhibition at a Specified Density (μg/ml): 9 [7]: 98.3% |
| Cc1cccc(C)c1/C=C/C(=O)c1ccccc1 [Compound 23, 2,6-Dimethylchalcone] | – | – | 47.7 | 57.9 | 89.6 | – |
| O=C1C(=Cc2c(Cl)cccc2Cl)COc2ccccc21 [Compound 67, 3-(2,6-Dichlorobenzylidene)chromanone] | 3.6 | 12.5 | – | – | – | Percent Inhibition at a Specified Density (μg/ml): 1 [1]: 5.4% |
| O=C1C(=Cc2ccccc2)CCc2ccccc21 [Compound 68, 2-(Benzylidene)tetralone] | 57.9 | 97.5 | – | – | – | Percent Inhibition at a Specified Density (μg/ml): 9 [7]: 96.7% |
| Cc1ccc(C(=O)/C=C/c2ccccc2)c(C)c1 [Compound 22, 2′,4′-Dimethylchalcone] | – | – | 41.7 | 80.4 | 87.2 | – |
| O=C(C=Cc1c2ccccc2cc2ccccc12)c1ccccc1 [Compound 52, 3-(9-Anthryl)-1-phenylpropenone] | 53.5 | 71.3 | – | – | – | Percent Inhibition at a Specified Density (μg/ml): 1 [1]: 54.6% |
| O=C(/C=C/c1ccccc1)/C=C/c1ccccc1 [Compound 3, 1,5-Diphenyl-1E,4E-pentadien-3-one] | – | – | 79.3 | 96.8 | 96.8 | – |

| Molecule | Percent Inhibition at a Specified Density (μg/ml): 3 [2] [%] | Percent Inhibition at a Specified Density (μg/ml): 6 [3] [%] | inhibition at 1 µg/mL [4] [%] | inhibition at 3 µg/mL [5] [%] | inhibition at 6 µg/mL [6] [%] | further results |
| --- | --- | --- | --- | --- | --- | --- |
| 2-(2-Naphthylidene)tetralone [Compound 71] | 82.8 | 88.7 | – | – | – | Percent Inhibition at a Specified Density (μg/ml): 9 [7]: 87.1% |
| Cc1ccc(C(=O)/C=C/c2ccc(C(C)C)cc2)cc1 [Compound 26, 4-Isopropyl-4′-methylchalcone] | – | – | 19.5 | 14.2 | 59.2 | – |
| O=C(/C=C/c1c(F)c(F)c(F)c(F)c1F)c1c(F)c(F)c(F)c(F)c1F [Compound 34, 2,2′,3,3′,4,4′,5,5′,6,6′-Decafluorochalcone] | – | – | 31.1 | 88.6 | 88.6 | – |
| O=C(C=Cc1ccccc1)c1ccco1 [Compound 44, 1-(2-Furyl)-3-phenylpropenone] | 57.7 | 90.2 | – | – | – | Percent Inhibition at a Specified Density (μg/ml): 1 [1]: 28.2% |
| Cc1ccc(C(=O)/C=C/c2ccc(OCc3ccccc3)cc2)cc1 [Compound 24, 4-Benzyloxy-4′-methylchalcone] | – | – | 18.4 | 5.1 | 17 | – |
| O=C(/C=C/c1ccc(Cl)cc1)c1ccc(Cl)cc1 [Compound 19, 4,4′-Dichlorochalcone] | – | – | 13.8 | 11.7 | 31.1 | – |
| Cc1ccc(C(=O)/C=C/c2ccccc2Cl)c(C)c1 [Compound 21, 2-Chloro-2′,4′-dimethylchalcone] | – | – | 29.6 | 25.2 | 73.4 | – |
| O=C(C=Cc1ccc2ccccc2c1)c1ccccc1 [Compound 62, 3-(2-Naphthyl)-1-phenylpropenone] | 29.5 | 44.3 | – | – | – | Percent Inhibition at a Specified Density (μg/ml): 9 [7]: 69.1% |
| O=C(C=Cc1ccco1)c1ccccc1 [Compound 45, 3-(2-Furyl)-1-phenylpropenone] | 1.0 | 0.0 | – | – | – | Percent Inhibition at a Specified Density (μg/ml): 1 [1]: 9.8% |
| O=C(C=Cc1ccccc1)c1cccc2ccccc12 [Compound 58, 1-(1-Naphthyl)-3-phenylpropenone] | 33.2 | 68.0 | – | – | – | Percent Inhibition at a Specified Density (μg/ml): 1 [1]: 10.9% |
| CC(=O)c1cc2cc(Br)ccc2oc1=O [Compound 12, 3-Acetyl-6-bromocoumarin, reference compound] | – | – | 20 | 12.7 | 17.4 | – |
| Cc1ccc(C(=O)/C=C/c2ccc(Cl)cc2Cl)cc1 [Compound 27, 2,4-Dichloro-4′-methylchalcone] | – | – | 19.9 | 10.4 | 84.6 | – |
| O=c1ccoc2ccccc12 [Compound 15, Chromone, reference compound] | – | – | 20.6 | 8.2 | 20.8 | – |
| O=C(O)/C=C/c1ccccc1 [Compound 10, trans-Cinnamic Acid, reference compound] | – | – | 18.6 | 14.1 | 69.6 | – |
| O=C(/C=C/c1c(Cl)cccc1Cl)c1c(Cl)cccc1Cl [Compound 32, 2,2′,6,6′-Tetrachlorochalcone] | – | – | – | 74.9 | 97 | inhibition at 9 µg/mL (Mus musculus, 9 μg/ml, 10,000 SVR cells in 24 well dish, counted at 48 hours, read-out: Percent Inhibition at a Specified Density (μg/ml): 9): 98.1% |
